# In PMC3763632, “Radiosynthesis and Radiotracer Properties of a 7-(2-[^18F]Fluoroethoxy)-6-methoxypyrrolidinylquinazoline for Imaging of Phosphodiesterase 10A with PET” (Pharmaceuticals, 2012):
# Values joined by “and” are separate entries in the source; they are usually repeats but may differ in a detail not shown here. Identical values can stand only once. “Also recorded” adds a separate entry of the source.
# How the values were obtained:
# [1] = tested on: PDE10A; assay: Ex vivo autoradiography of mouse brain; format: in vivo, CD-1 mice; details: 30 min p.i. of 100 MBq
# Experimental: To determine the regional distribution of [^18F]IV in the brain in vivo, we also performed ex vivo autoradiography. In CD-1 mice brain, heterogeneous distribution of radioactivity was noticed at 30 min after [^18F]IV injection (Figure 5), but the localization of radioligand did neither correlate with the spatial distribution of PDE10A in the brain known from immunohistochemical and in vivo PET studies nor with the pattern of [^18F]IV binding in the brain in vitro (Figure 3A). […] The discrepancy in the pattern of [^18F]IV distribution between in vitro and ex vivo autoradiography most probably indicates off-target binding of the radiotracer in combination with to low target affinity. While the dissociation rate underlying low affinity towards PDE10A allows a detection in the closed system of an in vitro study, the dynamic processes in vivo make binding of [^18F]IV towards PDE10A non-detectable. […]
# Ex vivo autoradiography on the distribution of [^18F]IV in mouse brain (n = 1) was performed on sagittal brain sections obtained at 30 min after i.v. injection of 100 MBq of [^18F]IV. […] After exposition to ^18F-sensitive storage phosphor screens for 60 min, image plates were analyzed using a bioimaging analyzer system (see above).
# [2] = target: T1, PDE10A (Homo sapiens, UniProt Q9Y233); assay: Homologous competitive binding on membrane homogenates of PDE10A-transfected SF21 cells
# T1 construct: purchased Biocrea GmbH, Radebeul, Germany; host or cells: SF21 insect cells (PDE10A-transfected; baculovirus system is mentioned)
# Experimental: The dissociation constant KD of [^18F]IV was determined in homologous competitive binding experiments by nonlinear regression analysis. Cell membrane homogenates from PDE10A-transfected SF21 cells (100 µg protein/mL incubation volume) were incubated with solutions of six concentrations of IV (working concentration 10 pM–[…]), each spiked with a fixed concentration of [^18F]IV (working concentration 0.05–0.1 nM).
# Crude membrane homogenates isolated from PDE10A-transfected SF21 cells were obtained from Biocrea GmbH, Radebeul, Germany. For competitive radioligand displacement experiments (n = 2), the membrane preparations were diluted with incubation buffer (50 mM Tris-HCl, pH 7.4 at room temperature, 5 mM MgCl2) and re-homogenized by passing through a 27-gauge needle. The protein (100 µg) was incubated with 0.05–0.1 nM of [^18F]IV and different concentrations of IV (10 pM–1 µM), diluted from a 10 mM stock in DMSO, at a final volume of 1 mL. Nonspecific binding was determined in the presence of 10 µM of I, and control incubation was carried out accordingly using crude membrane preparations obtained from non-transfected SF21 cells.
# Incubation at room temperature was terminated after 120 min by rapid filtration (Brandel 48-channel harvester; Biomedical Research and Development Lab. Inc., Gaithersburg, MD, USA) on Whatman GF/B glass-fiber filters, pre-soaked for 90 min in 0.3% polyethylenimine (Sigma, Deisenhofen, Germany), followed by washing four times with 4 mL of ice-cold wash buffer (50 mM Tris-HCl, pH 7.4 at 4 °C). Filter-bound radioactivity was quantified using a calibrated γ-counter (Wallac WIZARD, Perkin Elmer, Waltham, MA, USA).
# Each experiment was carried out in triplicate. The binding parameter IC50 was estimated using iterative non-linear curve fitting. KD of [^18F]IV was estimated directly from homologous competition curve with KD = IC50-[radioligand] as well as from the respective saturation isotherm by nonlinear regression analysis.
# T1 sequence (Q9Y233 whole entry, species assumed): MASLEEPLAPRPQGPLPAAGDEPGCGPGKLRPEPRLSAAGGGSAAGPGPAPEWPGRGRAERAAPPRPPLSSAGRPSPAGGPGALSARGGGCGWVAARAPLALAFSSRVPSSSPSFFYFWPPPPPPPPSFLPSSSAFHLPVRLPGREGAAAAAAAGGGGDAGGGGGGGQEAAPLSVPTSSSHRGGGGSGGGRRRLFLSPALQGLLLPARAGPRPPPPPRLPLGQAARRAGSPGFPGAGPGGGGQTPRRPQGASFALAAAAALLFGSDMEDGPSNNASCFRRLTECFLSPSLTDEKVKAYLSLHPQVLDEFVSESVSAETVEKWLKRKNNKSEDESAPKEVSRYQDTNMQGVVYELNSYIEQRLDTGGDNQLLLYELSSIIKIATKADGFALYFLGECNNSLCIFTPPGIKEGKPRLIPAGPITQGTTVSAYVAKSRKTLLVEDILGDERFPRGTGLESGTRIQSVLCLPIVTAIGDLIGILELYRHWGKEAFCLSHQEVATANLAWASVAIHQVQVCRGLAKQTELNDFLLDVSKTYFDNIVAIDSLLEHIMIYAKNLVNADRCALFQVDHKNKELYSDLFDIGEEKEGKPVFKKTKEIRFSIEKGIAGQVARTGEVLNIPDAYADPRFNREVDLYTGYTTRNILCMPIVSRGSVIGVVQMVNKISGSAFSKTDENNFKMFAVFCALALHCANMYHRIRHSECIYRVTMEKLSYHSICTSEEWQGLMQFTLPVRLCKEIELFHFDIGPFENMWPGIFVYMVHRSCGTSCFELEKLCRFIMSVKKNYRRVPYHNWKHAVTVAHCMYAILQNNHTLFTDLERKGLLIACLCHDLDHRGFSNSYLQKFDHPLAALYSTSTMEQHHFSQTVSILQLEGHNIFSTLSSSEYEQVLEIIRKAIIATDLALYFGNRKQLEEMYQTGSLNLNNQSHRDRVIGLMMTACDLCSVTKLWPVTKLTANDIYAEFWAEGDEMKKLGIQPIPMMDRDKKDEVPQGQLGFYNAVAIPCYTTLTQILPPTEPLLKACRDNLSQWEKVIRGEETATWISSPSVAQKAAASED
smiles,measurement,setting,value
"COc1cc2c(N3CC[C@@H](Oc4cnc5ccccc5n4)C3)ncnc2cc1OCC[18F] [[^18F]IV, (R)-7-(2-[^18F]Fluoroethoxy)-6-methoxy-4-(3-(quinoxalin-2-yloxy)pyrrolidin-1-yl)quinazoline]","accumulation in PDE10A-expressing brain regions (caudate putamen, olfactory tubercle, cerebellum)",[1],no target specific accumulation; also recorded: free of significant accumulation
same,Kd,"[2]; mean, n = 2, calculated from homologous competition",14 nM and ~14 nM
same,Kd,[2]; single experiments (n = 2),15.9 nM and 11.6 nM
